Assay results published in ChEMBL document CHEMBL1149643, “Synthesis of novel bicyclo[4.1.0]heptane and bicyclo[3.1.0]hexane derivatives as melanin-concentrating hormone receptor R1 antagonists” (Bioorg Med Chem Lett, 2007).

Tests used:
[1] = system: Mus musculus; experiment: Ex vivo receptor occupancy at MCHR1 in mouse at 30 mg/kg, po; assay type: functional
[2] = target: Melanin-concentrating hormone receptor 1 (Homo sapiens, UniProt Q99705); experiment: Antagonist activity at MCHR1; assay type: functional
Melanin-concentrating hormone receptor 1, sequence (Q99705 whole entry): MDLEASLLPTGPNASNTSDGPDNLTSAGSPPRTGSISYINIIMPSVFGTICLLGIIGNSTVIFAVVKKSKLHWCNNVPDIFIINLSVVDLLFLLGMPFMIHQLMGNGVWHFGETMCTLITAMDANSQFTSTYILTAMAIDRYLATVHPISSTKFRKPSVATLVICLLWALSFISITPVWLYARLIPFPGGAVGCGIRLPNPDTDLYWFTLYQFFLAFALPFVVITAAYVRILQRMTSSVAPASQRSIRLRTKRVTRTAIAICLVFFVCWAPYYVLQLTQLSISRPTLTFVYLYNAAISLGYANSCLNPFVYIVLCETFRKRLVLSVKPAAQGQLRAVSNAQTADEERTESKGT

[3] = target: hERG (KCNH2) (Homo sapiens, UniProt Q12809); experiment: Inhibition of hERG at 5 ug/ml by rubidium efflux assay; assay type: toxicity
hERG (KCNH2), sequence (Q12809 whole entry): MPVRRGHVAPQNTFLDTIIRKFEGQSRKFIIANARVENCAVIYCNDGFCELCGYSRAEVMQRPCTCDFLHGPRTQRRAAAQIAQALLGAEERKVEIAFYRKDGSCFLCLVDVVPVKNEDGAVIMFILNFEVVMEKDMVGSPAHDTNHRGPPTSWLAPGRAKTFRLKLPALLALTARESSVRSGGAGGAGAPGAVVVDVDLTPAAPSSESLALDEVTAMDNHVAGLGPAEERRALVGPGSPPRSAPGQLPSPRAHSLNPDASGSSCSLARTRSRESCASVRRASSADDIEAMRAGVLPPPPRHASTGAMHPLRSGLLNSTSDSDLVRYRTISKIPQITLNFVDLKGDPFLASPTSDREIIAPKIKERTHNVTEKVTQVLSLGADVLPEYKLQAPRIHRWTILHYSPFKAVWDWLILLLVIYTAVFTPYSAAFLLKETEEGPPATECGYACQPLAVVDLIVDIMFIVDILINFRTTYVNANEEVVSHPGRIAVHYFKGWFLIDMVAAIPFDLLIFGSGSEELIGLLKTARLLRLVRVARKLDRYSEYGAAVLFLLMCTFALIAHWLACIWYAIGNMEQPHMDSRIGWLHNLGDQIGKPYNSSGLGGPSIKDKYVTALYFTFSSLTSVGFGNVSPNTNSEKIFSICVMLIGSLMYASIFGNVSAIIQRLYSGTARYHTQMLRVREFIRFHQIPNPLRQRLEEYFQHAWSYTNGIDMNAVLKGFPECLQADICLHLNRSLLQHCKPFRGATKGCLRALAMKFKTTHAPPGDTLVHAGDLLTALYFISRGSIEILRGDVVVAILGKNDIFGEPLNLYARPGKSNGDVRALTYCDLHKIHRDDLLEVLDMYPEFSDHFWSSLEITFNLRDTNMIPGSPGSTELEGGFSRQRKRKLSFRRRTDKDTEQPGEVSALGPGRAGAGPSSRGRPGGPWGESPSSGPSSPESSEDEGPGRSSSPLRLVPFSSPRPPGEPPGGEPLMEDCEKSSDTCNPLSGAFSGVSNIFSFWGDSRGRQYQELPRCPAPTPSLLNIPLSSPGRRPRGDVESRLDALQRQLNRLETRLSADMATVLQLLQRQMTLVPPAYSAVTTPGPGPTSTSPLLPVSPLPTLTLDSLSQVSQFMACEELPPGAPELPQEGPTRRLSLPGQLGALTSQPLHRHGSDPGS

Compound	inhibition in vivo at 30 mg/kg [1] [%]	Ki [2] [nM]	inhibition at 5 ug/ml [3] [%]
C[C@@H]1CN[C@@H](C)CN1CCCN(C(=O)Nc1cc(Cl)nc(Cl)c1)[C@H]1CC[C@@]2(c3cnc(CN)s3)C[C@@H]12	26	171	17
NCc1ncc([C@]23CC[C@@H](N(CCN4CC[C@H](O)C4)C(=O)Nc4ccc(F)c(C(F)(F)F)c4)C2C3)s1 (some centres not stated)		99	8
C[C@@H]1CN[C@@H](C)CN1CCCN(C(=O)Nc1cc(Cl)nc(Cl)c1)[C@H]1CC[C@]2(c3cnc(CN)s3)C[C@H]12	39	4	22
C[C@@H]1CN(CCCN(C(=O)Nc2cc(Cl)nc(Cl)c2)[C@H]2CC[C@@]3(c4cnc(CN)s4)C[C@@H]23)[C@@H](C)CN1	20	117	-13
NCc1ncc([C@]23CC[C@@H](N(CCCN4CC[C@@H](O)C4)C(=O)Nc4ccc(F)c(C(F)(F)F)c4)C2C3)s1 (some centres not stated)		17	-4
N#Cc1cccc([C@]23CC[C@@H](N(CCN4CC[C@@H](O)C4)C(=O)Nc4ccc(F)c(Cl)c4)CC2C3)c1 (some centres not stated)			80
N#Cc1cccc([C@]23CC[C@@H](N(CCCN4CC[C@@H](O)C4)C(=O)Nc4ccc(F)c(Cl)c4)[C@H]2C3)c1		22	86
NCc1ncc([C@@]23CC[C@H](N(CCCN4CC[C@@H](O)C4)C(=O)Nc4ccc(F)c(C(F)(F)F)c4)[C@@H]2C3)s1		167	6
NCc1ncc([C@]23CC[C@@H](N(CCCN4CC[C@H](O)C4)C(=O)Nc4ccc(F)c(C(F)(F)F)c4)C2C3)s1 (some centres not stated)		45	-4
NCc1cnc([C@]23CC[C@@H](N(CCN4CCCC4)C(=O)Nc4ccc(F)c(C(F)(F)F)c4)CC2C3)s1 (some centres not stated)		431	19
NCc1ncc(C2=CCC(N(CCN3CCCC3)C(=O)Nc3ccc(F)c(Cl)c3)CC2)s1 (configuration not stated)	88		10
NCc1ncc([C@]23CC[C@@H](N(CCN4CCCC4)C(=O)Nc4ccc(F)c(C(F)(F)F)c4)C2C3)s1 (some centres not stated)		107	16
NCc1ncc([C@]23CC[C@H](N(CCCN4CC[C@@H](O)C4)C(=O)Nc4ccc(F)c(C(F)(F)F)c4)[C@H]2C3)s1		6.6	8
C[C@@H]1CN(CCCN(C(=O)Nc2cc(Cl)nc(Cl)c2)[C@@H]2CC[C@]3(c4cnc(CN)s4)CC23)[C@@H](C)CN1 (some centres not stated)		13.1	3
C[C@@H]1CN(CCCN(C(=O)Nc2ccc(F)c(C(F)(F)F)c2)[C@@H]2CC[C@]3(c4cnc(CN)s4)CC23)[C@@H](C)CN1 (some centres not stated)		19	-8
C[C@@H]1CN(CCCN(C(=O)Nc2cc(Cl)nc(Cl)c2)[C@H]2CC[C@]3(c4cnc(CN)s4)C[C@H]23)[C@@H](C)CN1	16	6.1	-12
NCc1ncc([C@]23CC[C@@H](N(CCCN4CC5CC4CN5)C(=O)Nc4ccc(F)c(C(F)(F)F)c4)C2C3)s1 (some centres not stated)		73	14
